Test [1] addresses T1, pro-FSAP in human plasma (Homo sapiens, UniProt Q14520).
T1 construct: from tissue; host or cells: human hirudin or citrate plasma from healthy donors, diluted 1:12
Kind of test: Activation of endogenous pro-FSAP in plasma, fluorogenic substrate turnover. Format: biochemical. The protocol:
Human citrate plasma (0.38% w/v) or hirudin plasma (25 μg/mL Lepirudin) was obtained from five healthy donors. Plasma was diluted at 1:12 and mixed with various test substances that potentially activate or inhibit pro-FSAP. Ac–Ala–Lys–Nle–Arg–AMC (amino–methyl–coumarin) was used as a sensitive and specific substrate for FSAP.[35] Hydrolysis of the fluorogenic substrates was measured using a Synergy HI plate reader with excitation at 320 nm and emission at 460 nm at 37 °C for 60 min. The maximal velocity was calculated from the linear part of the progress curve. In limited experiments, the second-generation fluorogenic FSAP substrate (Ac–Pro–DTyr–Lys–Arg–AMC)[34] was used. Pro-uPA activation, formation of FSAP−α2-antiplasmin, and western blotting with anti-FSAP antibodies were also used to monitor pro-FSAP activation.

The test system of test [2] is light chain/serine protease domain (SPD). Nature of the test: Binding of biotinylated peptides to captured recombinant FSAP light chain/SPD. Particulars: peptide 1 μM; triplicate wells (Fig 2E). On the set-up: species or system human. The method, then: (§1) Figure 2 NNKC9/41 interacts with the NTR of pro-FSAP: (A) To determine peptide binding to pro-FSAP, wells were coated with 2 μg/mL pro-FSAP and biotinylated NNKC9/41 and NNK11/189 and their respective scrambled controls were added in different concentration (0–5 μM). Peroxidase-labeled streptavidin was used to detect peptide binding. (B) Same procedure as in (A) except that different proteins were immobilized and biotinylated NNKC9/41 (0–30 μM) was added and its binding was measured. (C) Schematic structure of pro-FSAP with the heavy chain consisting of an NTR, three EGF domains, and a kringle domain, followed by the light chain harboring the serine protease domain (SPD). The binding domains of antibodies used in this study are indicated. (D) Recombinant complete heavy chain (heavy) and truncated heavy chain variants ΔNTR, ΔEGF1, ΔEGF2, ΔEGF3, and ΔKringle were expressed in bacteria and analyzed by sodium dodecyl sulfate poly(acrylamide) gel electrophoresis (SDS-PAGE) followed by Coomassie staining. […] Biotinylated NNKC9/41 or the scrambled control peptide was added at 1 μM and peptide binding was measured with peroxidase-linked streptavidin. […]
(§2) Wells were coated with anti-FSAP polyclonal antibodies (5 μg/mL). […] Subsequently, the plates were washed, and bound peptides were detected with peroxidase-coupled streptavidin. […]

The test system of the next test is ΔNTR mutant. Nature of the test: Binding of biotinylated peptides to captured ΔNTR mutant. On the set-up: species or system human. Particulars: peptide 1 μM; triplicate wells (Fig 2E). The protocol:
as §1, §2

In test [3] the target is T1, pro-FSAP in human plasma. Nature of the test: Western blotting of activated plasma, FSAP-inhibitor complex. Format: biochemical. Particulars: hirudin and citrate plasma 1:2, 1 h at 37 °C, non-reducing; NNKC9/41 25 µM (Fig S6). The protocol:
Hirudin plasma Citrate plasma
Fig S6. Western blotting of activated plasma: Hirudin or citrate plasma (1:2) dilution was incubated for 1 h at 37 °C with test substances and the samples were analyzed by Western blotting with an anti-FSAP polyclonal antibody under non-reducing conditions. Top panel: NNKC9/41 and Ser-Ser cyclic peptides (25 µM) were compared to histones (50 µg/ml). Lower panel: 100, 50, 25 and 12.5 µM NNKC9/41 and Ser-Ser cyclicpeptide were compared. Arrows on the right indicate the presence of FSAP and FSAP-inhibitor complexes and MW markers are indicated on the left.Results are representative of 3 independent experiments. […]
On the technique in general: A western blot detects proteins with antibodies after separation by electrophoresis.

A further test has as its system Factor XIIa. Nature of the test: Specificity: factor XIIa. Particulars: Factor XIIa 20 nM; peptide 0-50 μM; CS31 (Fig S7). Format: biochemical. The method, then: Fig S7. Specificity of NNKC9/41 towards other pro-enzymes: Zymogens and their respective active enzymes were incubated with NNKC9/41 or Ser-Ser linear peptide (0-50 μM) and the enzyme activity was monitored using respective chromogenic substrates. Activity of Factor XII(100 nM) and Factor XIIa (20 nM) was measured with the substrate CS31 (1000 µM). Pro-thrombin (100 nM) and thrombin (20 nM) […]
(§3) Bend, IN, USA) except plasminogen and FSAP, which were isolated in house; and pro-uPA was from Grünenthal (Stolberg, Germany). All chromogenic substrates were from Hyphen Biomed (Neuville Sur Oise, France). Experiments were carried out in TBS with Tween-20 (0.1 % wt/ vol) BSA (0.3% wt/vol) and CaCl2 (2 mM). Absorbance at 405 nm was measured over time and the enzyme activity is depicted was measured in duplicates (mean + or -range) and similar results were obtained in 3

Another test has as its system thrombin. Kind of test: Specificity: thrombin. Format: biochemical. Particulars: thrombin 20 nM; peptide 0-50 μM; CS01 (Fig S7). The protocol:
Fig S7. […]
Pro-thrombin (100 nM) and thrombin (20 nM) […]
as §3

Where only a bound is given, the exact number is not on record here.

T1 sequence (Q14520 24-560): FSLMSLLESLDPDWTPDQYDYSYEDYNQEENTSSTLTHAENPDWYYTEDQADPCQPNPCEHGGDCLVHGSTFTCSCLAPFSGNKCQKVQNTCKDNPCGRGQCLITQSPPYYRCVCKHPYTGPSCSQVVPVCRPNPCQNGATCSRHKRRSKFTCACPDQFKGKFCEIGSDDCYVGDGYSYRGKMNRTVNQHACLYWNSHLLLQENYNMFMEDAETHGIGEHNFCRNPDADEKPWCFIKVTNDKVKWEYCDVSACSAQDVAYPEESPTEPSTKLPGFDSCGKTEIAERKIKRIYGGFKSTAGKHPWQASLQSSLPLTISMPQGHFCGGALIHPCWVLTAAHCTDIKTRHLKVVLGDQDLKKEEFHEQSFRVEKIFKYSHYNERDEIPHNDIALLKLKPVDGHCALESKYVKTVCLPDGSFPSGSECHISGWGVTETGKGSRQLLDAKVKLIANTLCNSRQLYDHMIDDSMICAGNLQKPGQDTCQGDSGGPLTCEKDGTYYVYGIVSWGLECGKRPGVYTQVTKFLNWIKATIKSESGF

For CRGAMWMYKRC [NNKC9/41], the “inhibitory effect of citrate after recalcification” value on pro-FSAP in human plasma [1] (citrate plasma 1:12, recalcified, data not shown) was “reversed by recalcification”. Also, the “effect in citrate plasma 1:12” value at pro-FSAP in human plasma [1] (citrate plasma 1:12, 10 μM, 3 donors (Fig S5)) is “weak”. On pro-FSAP in human plasma [1] (hirudin plasma 1:12, NNKC9/41 0–25 μM, histones 0–25 μg/mL, three donors (Fig 4A)), the “fluorogenic substrate turnover vs histones” value is given as “stronger effect than histones”. The “pro-FSAP activation in plasma” value on pro-FSAP in human plasma [1] (hirudin plasma 1:12, peptides 25 μM, histones 25 μg/mL, Ac–Ala–Lys–Nle–Arg–AMC, duplicate wells (Fig 1D)) is listed as “robust activation of pro-FSAP comparable to that with histones”. Moreover, the “pro-FSAP activation in hirudin plasma” value on pro-FSAP in human plasma [1] (hirudin plasma, dilutions 1:2 to 1:12, 10 μM, 3 donors (Fig S5)) is “activated pro-FSAP in plasma”. The “lag time of pro-FSAP activation” value on pro-FSAP in human plasma [1] (plasma, compared to histones (Fig 1D)) was > 15 min. For the same sequence, the “peptide binding to light chain/SPD” value in test [2] is recorded as “very low binding”. In the test on ΔNTR mutant, the “peptide binding to ΔNTR mutant” value is “very low binding”. Besides, on pro-FSAP in human plasma [3], the FSAP-inhibitor complex band result is given as “emergence of an FSAP-inhibitor complex band”. The effect on activity entry with Factor XIIa and with thrombin was “did not influence the activity” in each case.
